# According to ChEMBL document CHEMBL3885881, “DrugMatrix”:
# Organism: Rattus norvegicus
# Assay: DrugMatrix - Regimen: Daily Repeat
# Type: toxicity, organism-based, Sprague-Dawley
# Parameters: regimen Daily Repeat, gender Male, age 6-8 weeks
# Conditions: in vivo, po, route oral GAVAGE, vehicle 100 % WATER; for ABSOLUTE BASOPHIL / ABSOLUTE EOSINOPHIL / ABSOLUTE LYMPHOCYTE / ABSOLUTE MONOCYTE / ABSOLUTE SEGMENTED NEUTROPHIL / BASOPHIL / EOSINOPHIL / ERYTHROCYTE COUNT / HEMATOCRIT / HEMOGLOBIN / LEUKOCYTE COUNT / LYMPHOCYTE / MEAN CORPUSCULAR HEMOGLOBIN / MEAN CORPUSCULAR HEMOGLOBIN CONCENTRATION / MEAN CORPUSCULAR VOLUME / MONOCYTE / NEUTROPHIL / NUCLEATED RED BLOOD CELLS / PLATELET COUNT: tissue Blood; for ALANINE AMINOTRANSFERASE / ALBUMIN / ALKALINE PHOSPHATASE / ASPARTATE AMINOTRANSFERASE / BLOOD UREA NITROGEN / CARBON DIOXIDE / CHLORIDE / CHOLESTEROL / CREATINE PHOSPHOKINASE / CREATININE / GLUCOSE / LACTATE DEHYDROGENASE / LIPASE / PHOSPHORUS / POTASSIUM / SODIUM / TOTAL BILIRUBIN / TOTAL PROTEIN / URIC ACID: tissue Plasma
# [1] = 900 mg/kg, 120 h, dose level Low, time 5 day
# [2] = 5000 mg/kg, 72 h, dose level High, time 3 day
# [3] = 5000 mg/kg, 120 h, dose level High, time 5 day
smiles,measurement,setting,value
Clc1ccc(C(c2ccccc2Cl)C(Cl)Cl)cc1 (centres undefined) [MITOTANE],ABSOLUTE BASOPHIL,[1],0 CELLS/uL
same,ABSOLUTE EOSINOPHIL,[1],0 CELLS/uL
same,ABSOLUTE LYMPHOCYTE,[1],11920 CELLS/uL
same,ABSOLUTE MONOCYTE,[1],138 CELLS/uL
same,ABSOLUTE SEGMENTED NEUTROPHIL,[1],942 CELLS/uL
same,BASOPHIL,[1],0%
same,EOSINOPHIL,[1],0%
same,ERYTHROCYTE COUNT,[1],5.65 x10E6/uL
same,HEMATOCRIT,[1],36%
same,HEMOGLOBIN,[1],14.27 G/DL
same,LEUKOCYTE COUNT,[1],13 x10E3/uL
same,LYMPHOCYTE,[1],91.67%
same,MEAN CORPUSCULAR HEMOGLOBIN,[1],25.3 pg
same,MEAN CORPUSCULAR HEMOGLOBIN CONCENTRATION,[1],39.6 G/DL
same,MEAN CORPUSCULAR VOLUME,[1],63.73 fL
same,MONOCYTE,[1],1%
same,NEUTROPHIL,[1],7.33%
same,NUCLEATED RED BLOOD CELLS,[1],0 /100WBC
same,PLATELET COUNT,[1],1407.33 x10E3/uL
same,ALANINE AMINOTRANSFERASE,[1],52 u/L
same,ALBUMIN,[1],4.07 G/DL
same,ALKALINE PHOSPHATASE,[1],421.33 u/L
same,ASPARTATE AMINOTRANSFERASE,[1],89.67 u/L
same,BLOOD UREA NITROGEN,[1],13.67 mg/dL
same,CARBON DIOXIDE,[1],30.67 mmol/L
same,CHLORIDE,[1],100 MEQ/L
same,CHOLESTEROL,[1],71 mg/dL
same,CREATINE PHOSPHOKINASE,[1],382 u/L
same,CREATININE,[1],0.2 mg/dL
same,GLUCOSE,[1],148.67 mg/dL
same,LACTATE DEHYDROGENASE,[1],632.67 u/L
same,LIPASE,[1],11 u/L
same,PHOSPHORUS,[1],12.57 mg/dL
same,POTASSIUM,[1],6.42 MEQ/L
same,SODIUM,[1],142.8 MEQ/L
same,TOTAL BILIRUBIN,[1],0.13 mg/dL
same,TOTAL PROTEIN,[1],6.03 G/DL
same,URIC ACID,[1],2.17 mg/dL
same,ABSOLUTE BASOPHIL,[2],0 CELLS/uL
same,ABSOLUTE EOSINOPHIL,[2],124.33 CELLS/uL
same,ABSOLUTE LYMPHOCYTE,[2],15356 CELLS/uL
same,ABSOLUTE MONOCYTE,[2],296.33 CELLS/uL
same,ABSOLUTE SEGMENTED NEUTROPHIL,[2],556.67 CELLS/uL
same,BASOPHIL,[2],0%
same,EOSINOPHIL,[2],0.67%
same,ERYTHROCYTE COUNT,[2],5.76 x10E6/uL
same,HEMATOCRIT,[2],36.73%
same,HEMOGLOBIN,[2],14.3 G/DL
same,LEUKOCYTE COUNT,[2],16.33 x10E3/uL
same,LYMPHOCYTE,[2],94.67%
same,MEAN CORPUSCULAR HEMOGLOBIN,[2],24.83 pg
same,MEAN CORPUSCULAR HEMOGLOBIN CONCENTRATION,[2],38.93 G/DL
same,MEAN CORPUSCULAR VOLUME,[2],63.8 fL
same,MONOCYTE,[2],1.67%
same,NEUTROPHIL,[2],3%
same,NUCLEATED RED BLOOD CELLS,[2],0 /100WBC
same,PLATELET COUNT,[2],1407.33 x10E3/uL
same,ALANINE AMINOTRANSFERASE,[2],75.67 u/L
same,ALBUMIN,[2],3.93 G/DL
same,ALKALINE PHOSPHATASE,[2],512.67 u/L
same,ASPARTATE AMINOTRANSFERASE,[2],87 u/L
same,BLOOD UREA NITROGEN,[2],12.33 mg/dL
same,CARBON DIOXIDE,[2],32.67 mmol/L
same,CHLORIDE,[2],101 MEQ/L
same,CHOLESTEROL,[2],72.33 mg/dL
same,CREATINE PHOSPHOKINASE,[2],440.67 u/L
same,CREATININE,[2],0.19 mg/dL
same,GLUCOSE,[2],123.33 mg/dL
same,LACTATE DEHYDROGENASE,[2],189.33 u/L
same,LIPASE,[2],10.33 u/L
same,PHOSPHORUS,[2],11.37 mg/dL
same,POTASSIUM,[2],6.63 MEQ/L
same,SODIUM,[2],144.03 MEQ/L
same,TOTAL BILIRUBIN,[2],0.1 mg/dL
same,TOTAL PROTEIN,[2],6.13 G/DL
same,URIC ACID,[2],1.53 mg/dL
same,ABSOLUTE BASOPHIL,[3],0 CELLS/uL
same,ABSOLUTE EOSINOPHIL,[3],32.67 CELLS/uL
same,ABSOLUTE LYMPHOCYTE,[3],11464 CELLS/uL
same,ABSOLUTE MONOCYTE,[3],86.67 CELLS/uL
same,ABSOLUTE SEGMENTED NEUTROPHIL,[3],983.33 CELLS/uL
same,BASOPHIL,[3],0%
same,EOSINOPHIL,[3],0.33%
same,ERYTHROCYTE COUNT,[3],5.42 x10E6/uL
same,HEMATOCRIT,[3],34.3%
same,HEMOGLOBIN,[3],13.47 G/DL
same,LEUKOCYTE COUNT,[3],12.57 x10E3/uL
same,LYMPHOCYTE,[3],91.33%
same,MEAN CORPUSCULAR HEMOGLOBIN,[3],24.83 pg
same,MEAN CORPUSCULAR HEMOGLOBIN CONCENTRATION,[3],39.3 G/DL
same,MEAN CORPUSCULAR VOLUME,[3],63.2 fL
same,MONOCYTE,[3],0.67%
same,NEUTROPHIL,[3],7.67%
same,NUCLEATED RED BLOOD CELLS,[3],0 /100WBC
same,PLATELET COUNT,[3],1284 x10E3/uL
same,ALANINE AMINOTRANSFERASE,[3],63.67 u/L
same,ALBUMIN,[3],4.07 G/DL
same,ALKALINE PHOSPHATASE,[3],426.67 u/L
same,ASPARTATE AMINOTRANSFERASE,[3],73 u/L
same,BLOOD UREA NITROGEN,[3],15 mg/dL
same,CARBON DIOXIDE,[3],34.67 mmol/L
same,CHLORIDE,[3],97.33 MEQ/L
same,CHOLESTEROL,[3],99.67 mg/dL
same,CREATINE PHOSPHOKINASE,[3],400.67 u/L
same,CREATININE,[3],0.19 mg/dL
same,GLUCOSE,[3],133.33 mg/dL
same,LACTATE DEHYDROGENASE,[3],123.33 u/L
same,LIPASE,[3],11.33 u/L
same,PHOSPHORUS,[3],11.97 mg/dL
same,POTASSIUM,[3],6.85 MEQ/L
same,SODIUM,[3],141.7 MEQ/L
same,TOTAL BILIRUBIN,[3],0.2 mg/dL
same,TOTAL PROTEIN,[3],6.37 G/DL
same,URIC ACID,[3],1.57 mg/dL
